# Reference: the supplement of paper PMC7108870
# Experiments:
# HEK293sieSTAT3(Y640F) [1] = assay: drug sensitivity score (DSS), viability CellTiter-Glo (DSS (dimensionless)); higher = more growth inhibition; extreme values may be limits of the assay; conditions: 72 h; STAT3 variant: Y640F (constitutively active)
# Summary of the method: (§1)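 A drug sensitivity score, based on the area of the dose-response curve, was calculated in Breeze after normalising values to negative and positive control wells. It came from HEK293 cells carrying a STAT3-dependent luciferase reporter and overexpressing wild-type or mutant STAT3, plated at 20 μl of 100,000 cells/ml onto compounds acoustically pre-plated at 5 concentrations in 10-fold dilutions in 384-well plates. Following 72 hours at 37°C and 5% CO2, CellTox Green fluorescence (485/520 nm) and then CellTiter-Glo luminescence were read on a PHERAstar FS.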
# HEK293sieSTAT3(wt) [2] = assay: as above; conditions: 72 h; STAT3 variant: wild type
# Summary of the method: as §1
# HEK293sieSTAT3(Y640F) [3] = assay: drug sensitivity score (DSS), cytotoxicity CellTox Green (DSS (dimensionless)); higher = more cytotoxic; extreme values may be limits of the assay; conditions: 72 h; STAT3 variant: Y640F (constitutively active)
# Summary of the method: as §1
# HEK293sieSTAT3(wt) [4] = assay: as above; conditions: 72 h; STAT3 variant: wild type
# Summary of the method: as §1
Structure (SMILES),drug sensitivity score (HEK293sieSTAT3(Y640F) [1]),drug sensitivity score (HEK293sieSTAT3(wt) [2]),drug sensitivity score (HEK293sieSTAT3(Y640F) [3]),drug sensitivity score (HEK293sieSTAT3(wt) [4])
C=CCN(/C=C1/C(=O)O[C@H](COC)[C@@]2(C)C1=C(O)C(=O)C1=C2[C@H](OC(C)=O)C[C@]2(C)C(=O)CC[C@@H]12)CC=C [Sonolisib] (top concentration tested 10000 nM),1.67,0.33,2.34,0
CNC(=O)c1cc(Oc2ccc(NC(=O)Nc3ccc(Cl)c(C(F)(F)F)c3)cc2)ccn1 [Sorafenib] (top concentration tested 1000 nM),0,0.09,1.07,0
CN1CCN(c2nc(C3=C(c4c[nH]c5ccccc45)C(=O)NC3=O)c3ccccc3n2)CC1 [Sotrastaurin] (top concentration tested 10000 nM),3.63,5.78,3,0.69
C=CC(=O)Nc1cccc(Nc2nc(Nc3ccc(OCCOC)cc3)ncc2F)c1 [Spebrutinib] (top concentration tested 1000 nM),2.4,0,0,0
O=[N+]([O-])c1ccc2c(c1)S(=O)(=O)C=C2 [Stattic] (top concentration tested 50000 nM),17.2,17.2,16.9,18.9
CC(C)n1cnc2c(NCCc3ccc(O)cc3)nc(-c3csc4ccccc34)nc21 [StemRegenin 1] (top concentration tested 10000 nM),3.04,5.04,0.52,5.48
CN(N=O)C(=O)N[C@@H](C=O)[C@@H](O)[C@H](O)[C@H](O)CO [Streptozocin] (top concentration tested 10000 nM),0,1.93,0,0
CCN(CC)CCNC(=O)c1c(C)[nH]c(/C=C2\C(=O)Nc3ccc(F)cc32)c1C [Sunitinib] (top concentration tested 1000 nM),0.02,0,0,0
CC(C)(O)CC(=O)NCCn1ccc2ncnc(Nc3ccc(Oc4cccc(C(F)(F)F)c4)c(Cl)c3)c21 [TAK-285] (top concentration tested 2500 nM),0,0,0,0
N#Cc1c(Oc2ccc(F)c(NC(=O)Cc3cccc(C(F)(F)F)c3)c2)ccc2nc(NC(=O)C3CC3)sc12 [TAK-632] (top concentration tested 10000 nM),11.1,8.51,0,0
